Values joined by “and” are separate entries in the source; they are usually repeats but may differ in a detail not shown here. Identical values can stand only once. Marks after values point to notes of the source that are not given here.
What was measured:
[1] = test system: acetic acid induced writhing; experiment: Anti-nociception, acetic acid writhing test; format: in vivo, Fisher 344 rats; conditions: 0.0057 mmol/kg body weight i.p., 0.6% acetic acid
Source text: The animals (Fisher 344 rats), which have been bred in our laboratory, were housed under standard conditions and received a diet of commercial food pellets and water ad libitum during the maintenance but they were entirely fasted during the experiment period. Both sexes were used while females pregnant were excluded. Each group was composed of 6–15 animals. Our studies were in accordance with recognized guidelines on animal experimentation (guidelines for the care and use of laboratory animals published by the Greek Government 160/1991, based on EU regulations 86/609). Rats were kept in the Centre of the School of Veterinary Medicine (EL54 BIO42), Aristotle University of Thessaloniki, which is registered by the official state veterinary authorities (presidential degree 56/2013, in harmonization with the European Directive 2010/63/EEC). The experimental protocols were approved by the Animal Ethics Committee of the Prefecture of Central Macedonia (no. 270079/2500). In order to study the analgesic activity of the tested compound, pain is provoked with acetic acid. Three groups for each compound were used with five animals per group. We followed our previous presented method. After treatment with the tested compounds (0.0057 mmol/kg body weight; intraperitoneally) in group 1, 2nd group was used as a positive control (aspirin; 0.0057 mmol/kg body weight i.p.) and another group (3rd) served as the control in which saline was administered (negative control). After 30 min, 0.6% acetic acid (1 mL/kg body weight) was injected i.p. The number of writhes was recorded for each animal every 5 min during a subsequent 30 min period.

[2] = Inhibition of linoleic acid lipid peroxidation (AAPH)
Source text: Azo compounds, like AAPH, generating free radicals through spontaneous thermal decomposition are useful for in vitro studies of free radical production. Production of conjugated diene hydroperoxide by oxidation of sodium linoleate in an aqueous solution is monitored at 234 nm. This assay can be used to follow oxidative changes and to understand the contribution of each tested compound. […] It seems that the presence of moiety Ar (Scheme 1) is mainly correlated with the antioxidant result. The nature of the heteroatom O/S in Ar substituent in the 5-membered oxazolone ring (compounds 2c and 2e) influences the biological response. The replacement of the thienyl group in 2c by a furyl group (2e) leads to a 31% decrease of the antioxidant ability.
(§1) Each in vitro experiment was performed at least in triplicate and the standard deviation of absorbance was less than 10% of the mean. For the in vitro assays, a stock solution (1% DMSO in the appropriate buffer with the tested compound diluted under sonification) was prepared from which several dilutions were made with the appropriate buffer.
The AAPH-induced oxidation of linoleic acid measures the ability of an antioxidant to prevent oxidation of linoleic acid sodium salt induced by alkylperoxyl radicals, generated from the water soluble azo compound 2,2′-azobis(2-amidinopropane) dihydrochloride (AAPH). The assay was performed according to our previous publications. Trolox was used as reference compound.

[3] = biological target: T1, soybean lipoxygenase (Glycine max, UniProt P08170); experiment: Soybean lipoxygenase inhibition study; format: biochemical; conditions: for inhibition at 100 µM: read-out: LOX % inhibition 100 μM; for IC50: soybean lipoxygenase, sodium linoleate 0.1 mM, read-out: LOX IC50
T1 construct: purchased Sigma Chemical, Co. (St. Louis, MO, USA)
T1 sequence (P08170 1-839): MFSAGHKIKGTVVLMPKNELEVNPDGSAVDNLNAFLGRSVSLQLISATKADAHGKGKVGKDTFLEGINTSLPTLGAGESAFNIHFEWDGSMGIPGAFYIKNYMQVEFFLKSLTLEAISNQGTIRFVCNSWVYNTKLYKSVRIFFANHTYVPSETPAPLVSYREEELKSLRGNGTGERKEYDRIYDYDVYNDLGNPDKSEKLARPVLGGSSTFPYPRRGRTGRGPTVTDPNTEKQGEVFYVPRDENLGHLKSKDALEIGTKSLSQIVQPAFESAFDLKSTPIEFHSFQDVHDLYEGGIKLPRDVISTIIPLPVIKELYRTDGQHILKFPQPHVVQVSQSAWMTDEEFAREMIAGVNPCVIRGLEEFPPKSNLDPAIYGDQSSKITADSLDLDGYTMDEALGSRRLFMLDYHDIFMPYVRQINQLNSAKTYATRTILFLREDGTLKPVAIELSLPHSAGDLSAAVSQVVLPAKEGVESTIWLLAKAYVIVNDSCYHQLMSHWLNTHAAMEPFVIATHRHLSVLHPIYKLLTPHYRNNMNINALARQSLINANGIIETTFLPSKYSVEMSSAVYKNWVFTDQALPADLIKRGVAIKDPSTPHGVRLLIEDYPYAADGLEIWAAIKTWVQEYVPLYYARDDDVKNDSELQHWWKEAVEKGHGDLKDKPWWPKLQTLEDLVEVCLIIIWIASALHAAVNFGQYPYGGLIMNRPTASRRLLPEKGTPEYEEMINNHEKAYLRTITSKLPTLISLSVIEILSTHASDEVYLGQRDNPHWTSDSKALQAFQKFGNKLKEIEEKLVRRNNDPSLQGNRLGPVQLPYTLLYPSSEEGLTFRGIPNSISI
Experimental: For the in vitro assays, a stock solution (1% DMSO in the appropriate buffer with the tested compound diluted under sonification) was prepared from which several dilutions were made with the appropriate buffer. DMSO solution of the tested compound (stock solutions 10 mM) was incubated with sodium linoleate (0.1 mM) and 0.2 mL of soybean lipoxygenase solution (1/9 × 10^−4 w/v in saline) at room temperature. The test follows our previous published methods. […] Several concentrations were used to determine the IC50.

[4] = biological target: T2, trypsin (Bos taurus, UniProt P00760); experiment: Inhibition of trypsin induced proteolysis; format: biochemical
T2 sequence (P00760 24-246): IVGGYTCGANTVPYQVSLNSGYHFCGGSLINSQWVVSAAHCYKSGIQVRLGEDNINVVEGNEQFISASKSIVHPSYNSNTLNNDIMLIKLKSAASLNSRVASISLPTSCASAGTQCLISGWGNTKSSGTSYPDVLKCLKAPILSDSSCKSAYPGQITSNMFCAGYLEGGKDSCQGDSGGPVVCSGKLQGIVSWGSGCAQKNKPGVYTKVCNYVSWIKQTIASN
Experimental: as §1
The tested compounds (10 µL) were dissolved in DMSO (final concentration 100 µM), with phosphate buffer (pH = 7.6) to give 0.005–0.1 mM solutions, and 100 µL trypsin (1 mg/10 mL) were preincubated at 37 °C for 30 min. Then, 200 µL of albumin (6 mg in 3 mL of distilled water) was added and incubated again at 37 °C for 24 h. After the incubation 1 mL trichloroacetic acid (5% w/w) was added to terminate the reaction. The mixture is centrifugated, the water layer is collected and monitored at 280 nm.

[5] = biological target: mushroom tyrosinase (Agaricus bisporus, UniProt C7FF04); experiment: Tyrosinase inhibition assay; format: biochemical; conditions: L-Dopa substrate, read-out: ΤyrI% 100 μM (inhibition of mushroom tyrosinase)
Chain of mushroom tyrosinase (G1K3P4 entry or part of it): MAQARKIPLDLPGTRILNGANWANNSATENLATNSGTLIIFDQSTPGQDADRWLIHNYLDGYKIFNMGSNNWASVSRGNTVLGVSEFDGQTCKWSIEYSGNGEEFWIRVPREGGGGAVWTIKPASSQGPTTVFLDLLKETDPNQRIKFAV
Chain of mushroom tyrosinase (C7FF04 1-392): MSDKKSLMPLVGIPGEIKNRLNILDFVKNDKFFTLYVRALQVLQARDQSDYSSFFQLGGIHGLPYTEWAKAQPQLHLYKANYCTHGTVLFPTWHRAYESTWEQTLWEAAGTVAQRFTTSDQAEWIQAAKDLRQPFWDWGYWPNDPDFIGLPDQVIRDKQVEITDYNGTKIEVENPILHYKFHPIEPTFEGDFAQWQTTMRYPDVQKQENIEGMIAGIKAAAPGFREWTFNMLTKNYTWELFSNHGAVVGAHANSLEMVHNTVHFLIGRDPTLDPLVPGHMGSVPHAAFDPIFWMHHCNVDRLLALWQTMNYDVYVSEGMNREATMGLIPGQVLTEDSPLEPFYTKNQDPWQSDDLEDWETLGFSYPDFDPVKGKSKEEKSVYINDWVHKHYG
Experimental: For the in vitro assays, a stock solution (1% DMSO in the appropriate buffer with the tested compound diluted under sonification) was prepared from which several dilutions were made with the appropriate buffer.

[6] = test system: carrageenin-induced rat paw edema; experiment: Inhibition of the carrageenin-induced rat paw edema; format: in vivo, Fisher 344 rats; conditions: 0.0057 mmol/kg body weight i.p., 3.5 h after carrageenin
Experimental: For the estimation of anti-inflammatory potential of the tested compounds the rat carrageenin induced paw edema assay was employed as a model for acute inflammation. Indomethacin, as a reference drug, and our compounds were administered intraperitoneally in order to ensure systemic response via fast bioavailability, while carrageenin’s intradermal administration, as inflammatory agent, aimed to local response. The development of the edema induced by carrageenin has been described as a biphasic event. The early phase of the inflammatory response, lasting 0.5–1.5 h, is chiefly mediated by histamine and serotonin release inducing hyperalgesia, swelling and redness, while the later phase, lasting 3–6 h, is sustained presumably by prostaglandin release. This model reliably predicts the anti-inflammatory efficacy of the NSAIDs during the second phase, since non-steroidal anti-inflammatory drugs (NSAIDs) present weak activity in the first phase. Therefore, using this protocol we could evaluate our compounds as potential anti-inflammatory agents, as a result of inhibition of prostaglandin amplification.
The animals (Fisher 344 rats), which have been bred in our laboratory, were housed under standard conditions and received a diet of commercial food pellets and water ad libitum during the maintenance but they were entirely fasted during the experiment period. Both sexes were used while females pregnant were excluded. Each group was composed of 6–15 animals. Our studies were in accordance with recognized guidelines on animal experimentation (guidelines for the care and use of laboratory animals published by the Greek Government 160/1991, based on EU regulations 86/609). […]
Edema was induced in the right hind paw of the rats by the intradermal injection of 0.1 mL 2% carrageenin in water we followed our previous published method. […] The change in paw weight was compared with that in control animals (treated with water) and expressed as a percent inhibition of the edema CPE % values. […]

Row | Compound | Writhing Inhibition (%) [1] [%] | AAPH% 100 µM (anti-lipid peroxidation) [2] [%] | inhibition at 100 µM [3] [%] | IC50 [3] [µM] | Iptr% 10 µM (% trypsin inhibition) [4] | melting point [°C] | inhibition at 100 µM [5] [%] | CPE (%) inhibition of carrageenin-induced rat paw edema [6]
1 | CC(=O)Oc1ccccc1C(=O)O [Aspirin, aspirin, reference compound] | 77 | – | – | – | – | – | – | –
2 | O=C(N/C(=C\c1ccccc1)C(=O)N1CCOCC1)c1ccccc1 [Compound 3a, (Z)-N-(3-morpholino-3-oxo-1-phenylprop-1-en-2-yl)benzamide] | – | 69 | < 50 | 100 | no | 135 to 138 | – | –
3 | O=C(N/C(=C\c1ccccc1)C(=O)N1CCN(C(=O)/C(=C/c2ccccc2)NC(=O)c2ccccc2)CC1)c1ccccc1 [Compound 4a, N,N′-((1Z,1′Z)-piperazine-1,4-diylbis(3-oxo-1-phenylprop-1-ene-3,2-diyl))bisbenzamide] | 32 | 82 | 36 | – | – | 265 to 268 | 33 | 44 * % and 44%
4 | O=C(N/C(=C\c1cccs1)C(=O)N1CCN(C(=O)/C(=C/c2cccs2)NC(=O)c2ccccc2)CC1)c1ccccc1 [Compound 4c, N,N′-((1Z,1′Z)-piperazine-1,4-diylbis(3-oxo-1-(thiophen-2-yl)prop-1-ene-3,2-diyl))bisbenzamide] | 58 | 93 | – | 41 | – | 292 to 294 | 42 | 56 ** % and 56%

Source: paper PMC7397336, “5-(4H)-Oxazolones and Their Benzamides as Potential Bioactive Small Molecules” (Molecules, 2020)
